Laboratory results: ChEMBL document CHEMBL4725294, “Centrally Active Multitarget Anti-Alzheimer Agents Derived from the Antioxidant Lead CR-6” (J Med Chem, 2020)
The source made the active and inactive calls. No cut-off for these calls is given here.

How the values were obtained:
[1] = tested on: Mus musculus; experiment: Antialzheimer activity in APP/PS1 double mutant-transgenic C57BL6/J mouse model assessed as reduction in Bace1 expression at 10 mg/kg/day, ip for 4 weeks followed by compound washout and measured after 24 hrs by Western blot analysis; format: functional, organism-based
[2] = Stability in rat plasma assessed as parent compound remaining at 10 uM measured immediately by UPLC-MS/MS analysis; format: ADME, cell-free; conditions: read-out: Stabilty
[3] = Stability in mouse plasma assessed as parent compound remaining at 10 uM measured after 360 mins by UPLC-MS/MS analysis; format: ADME, cell-free; conditions: read-out: Stabilty
[4] = tested on: Mus musculus; experiment: Improvement in memory impairment in APP/PS1 double mutant-transgenic C57BL6/J mouse model assessed as […] at 10 mg/kg/day, ip for 4 weeks followed by compound washout by maze two-object recognition test; format: functional, organism-based
[5] = tested on: Mus musculus; experiment: Antialzheimer activity in APP/PS1 double mutant-transgenic C57BL6/J mouse model assessed as effect on iNOS gene expression at 10 mg/kg/day, ip for 4 weeks followed by compound washout and measured after 24 hrs by qPCR analysis; format: functional, organism-based
[6] = Drug metabolism in mouse liver microsomes assessed as N-[8-[(6-chloro-1,2,3,4-tetrahydroacridin-9-yl)amino]octyl]-3-hydroxy-5-(4-methoxy-3,6-dioxo-cyclohexa-1,4-dien-1-yl)-3-methyl-pentanamide formation at 5 uM measured up to 60 mins by UPLC-MS/MS analysis; format: ADME, Microsome; conditions: 1 h
[7] = Drug metabolism in human liver microsomes assessed as N-[8-[(6-chloro-1,2,3,4-tetrahydroacridin-9-yl)amino]octyl]-2-(8-methoxy-2-methyl-6,9-dioxo-1-oxaspiro[4.5]dec-7-en-2-yl)acetamide formation at 5 uM measured up to 60 mins by UPLC-MS/MS analysis; format: ADME, Microsome; conditions: 1 h
[8] = in vitro; conditions: PAMPA
Description: Permeability of compound in PBS/EtOH buffer (7:3) PAMPA-BBB assay

[9] = Stability in human plasma assessed as parent compound remaining at 10 uM measured after 360 mins by UPLC-MS/MS analysis; format: ADME, cell-free; conditions: read-out: Stabilty
[10] = Drug metabolism in human liver microsomes assessed as N-[8-[(6-chloro-1,2,3,4-tetrahydroacridin-9-yl)amino]octyl]-3-hydroxy-5-(4-methoxy-3,6-dioxo-cyclohexa-1,4-dien-1-yl)-3-methyl-pentanamide formation at 5 uM measured up to 60 mins by UPLC-MS/MS analysis; format: ADME, Microsome; conditions: 1 h
[11] = Acute toxicity in C57BL6/J mouse assessed as tremor at 15 mg/kg, ip measured after 5 mins; format: organism-based; conditions: in vivo
[12] = Half life in rat liver microsomes at 5 uM by UPLC-MS/MS analysis; format: ADME, Microsome
[13] = Acute toxicity in C57BL6/J mouse assessed as ptosis at 15 mg/kg, ip measured after 5 mins; format: organism-based; conditions: in vivo
[14] = tested on: Mus musculus; experiment: Antialzheimer activity in APP/PS1 double mutant-transgenic C57BL6/J mouse model assessed as reduction in Bace1 gene expression at 10 mg/kg/day, ip for 4 weeks followed by compound washout and measured after 24 hrs by qPCR analysis; format: functional, organism-based
[15] = Drug metabolism in mouse liver microsomes assessed as N-[8-[(6-chloro-1,2,3,4-tetrahydroacridin-9-yl)amino]octyl]-2-(8-methoxy-2-methyl-6,9-dioxo-1-oxaspiro[4.5]dec-7-en-2-yl)acetamide formation at 5 uM measured up to 60 mins by UPLC-MS/MS analysis; format: ADME, Microsome; conditions: 1 h
[16] = Drug metabolism in rat liver microsomes assessed as N-[8-[(6-chloro-1,2,3,4-tetrahydroacridin-9-yl)amino]octyl]-5-(2,5-dihydroxy-4-methoxy-phenyl)-3-hydroxy-3-methyl-pentanamide formation at 5 uM measured up to 60 mins by UPLC-MS/MS analysis; format: ADME, Microsome; conditions: 1 h
[17] = Drug metabolism in rat liver microsomes assessed as 6-chloro-1,2,3,4-tetrahydroacridin-9-amine formation at 5 uM measured up to 60 mins by UPLC-MS/MS analysis; format: ADME, Microsome; conditions: 1 h
[18] = Drug metabolism in mouse liver microsomes assessed as 6-chloro-1,2,3,4-tetrahydroacridin-9-amine formation at 5 uM measured up to 60 mins by UPLC-MS/MS analysis; format: ADME, Microsome; conditions: 1 h
[19] = tested on: Mus musculus; experiment: Antialzheimer activity in APP/PS1 double mutant-transgenic C57BL6/J mouse model assessed as reduction in soluble amyloid beta 42 level in cortex at 10 mg/kg/day, ip for 4 weeks followed by compound washout and measured after 24 hrs by ELISA; format: functional, organism-based
[20] = Stability in mouse plasma assessed as parent compound remaining at 10 uM measured after 60 mins by UPLC-MS/MS analysis; format: ADME, cell-free; conditions: read-out: Stabilty
[21] = Acute toxicity in C57BL6/J mouse at 5 to 10 mg/kg, ip measured up to 24 hrs; format: organism-based; conditions: in vivo, dose 5-10 mg/kg
[22] = Stability in human plasma assessed as parent compound remaining at 10 uM measured after 60 mins by UPLC-MS/MS analysis; format: ADME, cell-free; conditions: read-out: Stabilty
[23] = Stability in rat plasma assessed as parent compound remaining at 10 uM measured after 360 mins by UPLC-MS/MS analysis; format: ADME, cell-free; conditions: read-out: Stabilty
[24] = Acute toxicity in C57BL6/J mouse assessed as piloerection at 15 mg/kg, ip measured after 5 mins; format: organism-based; conditions: in vivo
[25] = target: Acetylcholinesterase (Homo sapiens, UniProt P22303)
Description: Inhibition of recombinant human AChE expressed in HEK293 cells using acetylthiocholine iodide as substrate preincubated for 15 mins followed by substrate addition by Ellman's method

[26] = Acute toxicity in C57BL6/J mouse at 15 mg/kg, ip measured after 3 hrs; format: organism-based; conditions: in vivo
[27] = tested on: Mus musculus; experiment: Antialzheimer activity in APP/PS1 double mutant-transgenic C57BL6/J mouse model assessed as increase in Adam10 expression at 10 mg/kg/day, ip for 4 weeks followed by compound washout and measured after 24 hrs by Western blot analysis; format: functional, organism-based
[28] = Stability in rat plasma assessed as parent compound remaining at 10 uM measured after 180 mins by UPLC-MS/MS analysis; format: ADME, cell-free; conditions: read-out: Stabilty
[29] = Stability in human plasma assessed as parent compound remaining at 10 uM measured after 180 mins by UPLC-MS/MS analysis; format: ADME, cell-free; conditions: read-out: Stabilty
[30] = Drug metabolism in mouse liver microsomes assessed as N-[8-[(6-chloro-1,2,3,4-tetrahydroacridin-9-yl)amino]octyl]-5-(2,5-dihydroxy-4-methoxy-phenyl)-3-hydroxy-3-methyl-pentanamide formation at 5 uM measured up to 60 mins by UPLC-MS/MS analysis; format: ADME, Microsome; conditions: 1 h
[31] = Intrinsic clearance in mouse liver microsomes assessed per mg protein at 5 uM by UPLC-MS/MS analysis; format: ADME, Microsome; conditions: read-out: CLH
[32] = Stability in mouse liver microsomes assessed as parent compound remaining at 5 uM measured up to 60 mins by UPLC-MS/MS analysis; format: ADME, Microsome; conditions: read-out: Stabilty
[33] = tested on: Mus musculus; experiment: Antialzheimer activity in APP/PS1 double mutant-transgenic C57BL6/J mouse model assessed as increase in Adam10 gene expression at 10 mg/kg/day, ip for 4 weeks followed by compound washout and measured after 24 hrs by qPCR analysis; format: functional, organism-based
[34] = Drug metabolism in rat liver microsomes assessed as N-[8-[(6-chloro-1,2,3,4-tetrahydroacridin-9-yl)amino]octyl]-2-(8-methoxy-2-methyl-6,9-dioxo-1-oxaspiro[4.5]dec-7-en-2-yl)acetamide formation at 5 uM measured up to 60 mins by UPLC-MS/MS analysis; format: ADME, Microsome; conditions: 1 h

Chain of Acetylcholinesterase (P22303 whole entry): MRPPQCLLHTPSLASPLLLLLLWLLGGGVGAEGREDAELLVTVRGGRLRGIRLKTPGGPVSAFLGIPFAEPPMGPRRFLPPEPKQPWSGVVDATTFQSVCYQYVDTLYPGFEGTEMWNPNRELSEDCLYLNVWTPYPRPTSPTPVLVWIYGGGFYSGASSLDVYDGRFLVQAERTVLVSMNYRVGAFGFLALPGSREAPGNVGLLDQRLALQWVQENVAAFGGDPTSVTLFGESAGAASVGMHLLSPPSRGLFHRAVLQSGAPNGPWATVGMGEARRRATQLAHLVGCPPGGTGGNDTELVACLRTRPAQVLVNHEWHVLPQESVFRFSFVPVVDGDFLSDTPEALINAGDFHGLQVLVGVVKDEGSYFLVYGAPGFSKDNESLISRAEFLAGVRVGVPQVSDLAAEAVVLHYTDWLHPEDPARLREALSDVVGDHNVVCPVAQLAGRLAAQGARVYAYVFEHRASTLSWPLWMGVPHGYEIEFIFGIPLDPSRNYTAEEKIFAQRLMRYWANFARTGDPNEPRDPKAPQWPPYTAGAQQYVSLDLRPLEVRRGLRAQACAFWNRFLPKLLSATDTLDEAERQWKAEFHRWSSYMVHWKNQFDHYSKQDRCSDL

In the case of `COc1cc2c(cc1O)CCC(C)(CC(=O)NCCCCCCCCNc1c3c(nc4cc(Cl)ccc14)CCCC3)O2` (centres undefined), the Activity [1] is reported as “inactive”, the remaining at 0 min, 10 µM [2] is reported as 100% and the remaining at 6 h, 10 µM [3] is reported as 100%. For the same compound, the Activity [4] was “inactive”, the Activity [5] was “inactive” and the Drug metabolism [6] was “Metabolite_Detected”. The Drug metabolism [7] was “Metabolite_Detected”, the Papp [8] was 9.6 ×10⁻⁶ cm/s and the remaining at 6 h, 10 µM [9] was 100%. The Drug metabolism [10] was “Metabolite_Detected”, the Activity [11] was “Toxic” and the half-life at 5 µM [12] was 42.4 min. For the same compound, the Activity [13] was “Toxic”, the Activity [14] was “Active” and the Drug metabolism [15] was “Metabolite_Detected”. For the same compound, the Drug metabolism [16] was “Metabolite_Detected”, the Drug metabolism [17] was “Metabolite_Detected” and the Drug metabolism [18] was “Metabolite_Detected”. The Activity [19] was “inactive”, the remaining at 1 h, 10 µM [20] was 100% and the Activity [21] was “Non-Toxic”. The remaining at 1 h, 10 µM [22] was 100%, the remaining at 6 h, 10 µM [23] was 98% and the Activity [24] was “Toxic”. For the same compound, the IC50 [25] was 3.69 nM, the Activity [26] was “Non-Toxic” and the Activity [27] was “inactive”. For the same compound, the remaining at 3 h, 10 µM [28] was 100%, the remaining at 3 h, 10 µM [29] was 100% and the Drug metabolism [30] was “Metabolite_Detected”. For the same compound, the microsomal CLint at 5 µM [31] was 13.7 µL/min/mg, the remaining at 1 h, 5 µM [32] was 55.2% and the Activity [33] was “inactive”. For the same compound, the Drug metabolism [34] was “Metabolite_Detected”.
